Results on two compounds are retold here after patent US11324741B2, “Methods for treating visceral fat conditions” (Orexigen Therapeutics, Inc., priority 2008, dated 2022).

Type in all cases: in vivo, human
Assay [1] has as its system healthy, non-diabetic, obese subjects. Description: Double-blind, placebo-controlled multi-center trial, 24 weeks of treatment (Example 1). The conditions noted are these: for Fasting Glucose / Insulin (mcU/mL) / Triglyceride / Waist (cm) / Weight (%): obese subjects; for Weight (%): naltrexone 48 mg qd, bupropion 400 mg, or 32/400 mg combination; for Visceral fat (%): subset with DEXA and multislice CT scans. Here is the method:
A double-blind, placebo-controlled multi-center trial was conducted with 285 healthy, non-diabetic, obese subjects. The subjects were administered either bupropion 200 mg bid, placebo (P), naltrexone 48 mg qd (N1), or bupropion 400 mg with naltrexone 32 mg qd (BN2). 182 subjects completed 24 weeks of treatment. A subset of 60 subjects had dual energy X-ray absorptometry (DEXA) and multislice CT scans to measure body fat, lean tissue and visceral fat (American Diabetes Association Annual Meeting 2007).
The groups were matched at baseline.

The test system of assay [2] is Subjects. Description: Metabolic parameters (Example 2, Table 5). The conditions noted are these: Table 5, Metabolic Parameters. As for the experimental part: (§1) Subjects (n=117) received one of six treatments: two placebos (P+P), placebo and naltrexone (P+Nal), bupropion and placebo (Bup+P), bupropion and naltrexone 48 mg (Bup+Nal 48), bupropion and naltrexone 32 mg (Bup+Nal 32), or bupropion and naltrexone 16 mg (Bup+Nal 16).
(§2) The average change in visceral body mass is shown in FIG. 1 for the four treatments. […] Statistically significant improvements were also observed in several important metabolic parameters including: plasma glucose, serum insulin and plasma triglycerides.

Assay [3] has as its system Subjects. Put plainly: DEXA body scan and multi-slice CT scan of body fat and visceral fat at baseline and 6 months (Example 2). The arrangement: LS Mean (SE)^, Visceral Adipose Mass / Change from Baseline Mean (SD), Visceral Adipose Mass / LS Mean (SE)^, Total Body Adipose Mass / Change from Baseline Mean (SD), Total Body Adipose Mass: unit not given here. The conditions noted are these: for Change from Baseline Mean (SD), Total Body Adipose Mass: DEXA; for Change from Baseline Mean (SD), Total Body Adipose Mass / Change from Baseline Mean (SD), Visceral Adipose Mass: baseline to 6 months; for Change in Waist Circumference (cm): Table 2, titled Baseline Weight, BMI and Weight Circumference; for Change in Waist Circumference (%) vs. placebo: Table 2; for LS Mean (SE)^, Total Body Adipose Mass / LS Mean (SE)^, Visceral Adipose Mass: change from baseline; for Change from Baseline Mean (SD), Visceral Adipose Mass: multi-slice CT. As for the experimental part:
as §1
The mass of selective visceral loss can be calculated based on total fat and the volume of visceral fat.
as §2
The percentage of this decrease was similar in magnitude in both visceral and overall adipose tissue.

As for `CC(NC(C)(C)C)C(=O)c1cccc(Cl)c1` (stereo not drawn) [Bupropion, bupropion], in assay [1], the “Fasting Glucose” value is given as 3.5 ± 1.5 mg/dL, the “Insulin (mcU/mL)” value is reported as −0.5 ± 1.1 mcU/mL, the “Triglyceride” value is -18.4 ± 9.0 mg/dL and the “Waist (cm)” value is −2.9 ± 6.0 cm. Moreover, in assay [1], the “Weight (%)” value is reported as −3.14 ± 0.7 % and the “Visceral fat (%)” value is recorded as −2.3 ± 5.1 %. Also, in the assay on Subjects [2], the “Plasma Glucose” value came out at 3.5 ± 1.5 mg/dL, the “Serum Insulin (uU/mL)” value is reported as −0.5 ± 1.1 uU/mL and the “Triglycerides” value is -18.4 ± 9.0 mg/dL. In addition, in the assay with Subjects [3], the “Change from Baseline Mean (SD), Total Body Adipose Mass” value was −4.1; the “Change in Waist Circumference (cm)” value is reported as 1.9 cm; the “Change in Waist Circumference (%) vs. placebo” value is 1.8%; the “LS Mean (SE)^, Total Body Adipose Mass” value was −2.6. For the same compound, in the assay with Subjects [3], the “LS Mean (SE)^, Visceral Adipose Mass” value was found to be 0.2 and the “Change from Baseline Mean (SD), Visceral Adipose Mass” value was −2.3.
Regarding `O=C1CC[C@@]2(O)[C@H]3Cc4ccc(O)c5c4[C@@]2(CCN3CC2CC2)[C@H]1O5` [Naltrexone, naltrexone], in assay [1], the “Fasting Glucose” value turned out to be 3.4 ± 1.7 mg/dL, the “Insulin (mcU/mL)” value is 1.7 ± 1.3 mcU/mL, the “Triglyceride” value was -17.6 ± 10.4 mg/dL and the “Waist (cm)” value is listed as −3.8 ± 12.7 cm. Moreover, in assay [1], the “Weight (%)” value is given as −1.74 ± 0.9 % and the “Visceral fat (%)” value is on record as −0.1 ± 8.7 %. Further, in the assay with Subjects [2], the “Plasma Glucose” value was found to be 3.4 ± 1.7 mg/dL, the “Serum Insulin (uU/mL)” value came out at 1.7 ± 1.3 uU/mL and the “Triglycerides” value was -17.6 ± 10.4 mg/dL. In the assay on Subjects [3], the “Change from Baseline Mean (SD), Total Body Adipose Mass” value is reported as −3.2; the “Change in Waist Circumference (cm)” value is listed as −1.5 cm; the “Change in Waist Circumference (%) vs. placebo” value is −1.4%; the “LS Mean (SE)^, Total Body Adipose Mass” value is −1.5. Moreover, in the assay on Subjects [3], the “LS Mean (SE)^, Visceral Adipose Mass” value is recorded as 3.5 and the “Change from Baseline Mean (SD), Visceral Adipose Mass” value is −0.1.
